From US11919965B2, “Methods of treating multiple myeloma with bispecific anti-BCMA x anti-CD3 antibodies” (Regeneron Pharmaceuticals, Inc., priority 2019, dated 2024)

What was measured:
monkey BCMA-MFC = experiment: SPR (Biacore 4000) binding kinetics at 25° C.
Protocol: (§1) The CM5 Biacore sensor surface was derivatized by amine coupling with a monoclonal mouse anti-human Fc antibody (GE, #BR-1008-39) to capture purified anti-BCMA mAbs and anti-BCMA×anti-CD3 bispecific mAbs. All Biacore binding studies were performed in a buffer composed of 0.01M HEPES pH 7.4, 0.15M NaCl, 3 mM EDTA, 0.05% v/v Surfactant P20 (HBS-ET running buffer). […] Antigen samples were then injected over the anti-BCMA and anti-BCMA×anti-CD3 bispecific mAbs captured surfaces at a flow rate of 30 μL/minute. Antibody-reagent association was monitored for 5 minutes while dissociation in HBS-ET running buffer was monitored for 10 minutes. All of the binding kinetics experiments were performed at 25° C. Kinetic association (ka) and dissociation (kd) rate constants were determined by fitting the real-time sensorgrams to a 1:1 binding model using Scrubber 2.0c curve fitting software. Binding dissociation equilibrium constants (KD) and dissociative half-lives (t1/2) were calculated from the kinetic rate constants as: […]

monkey BCMA-MMH = experiment: SPR (Biacore 4000) binding kinetics at 25° C.
Protocol: as §1

[1] = system: BCMA-expressing MOLP-8 multiple myeloma tumors; experiment: Xenogenic tumor model, MOLP-8 + human PBMC s.c. in NSG mice, dose response (Example 13); format: in vivo, mouse
Protocol: To determine the in vivo efficacy of anti-BCMA×anti-CD3 bispecific antibodies (Abs), a xenogenic tumor study was performed. Immunodeficient NOD.Cg-Prkdc^scidII2rg^tm1Wjl/SzJ (NSG) mice were subcutaneously implanted with a mixture of 5×10^6 BCMA-expressing MOLP-8 human multiple myeloma tumor cells and 1×10^6 human peripheral blood mononuclear cells (PBMC) isolated from a normal, healthy donor. […] The mice were administered these Abs twice per week for a total of seven doses, and tumor growth was assessed over 56 days. While the BCMA+ MOLP-8 tumors grew similarly in the vehicle- and CD3-binding control-treated mice, both BCMA×CD3 Abs that were tested prevented the growth of tumors in a dose-dependent manner in vivo.
Implantation and measurement of xenogenic tumors: NSG mice were subcutaneously implanted with a mixture of 5×10^6 BCMA-expressing MOLP-8 multiple myeloma cells and 1×10^6 PBMC derived from a normal, healthy donor. […] The mice were administered Abs twice per week for a total of seven doses. Tumor growth was measured by caliper twice per week for the duration of the experiment.
Calculation of xenogenic tumor growth and inhibition: In order to determine tumor volume by external caliper, the greatest longitudinal diameter (length in mm) and the greatest transverse diameter (width in mm) were determined. Tumor volumes based on caliper measurements were calculated by the formula: Volume (mm^3)=(length× width^2)/2.

[2] = system: BCMA+ OPM-2-luciferase tumors; experiment: Xenogenic tumor model, i.v. OPM-2-luciferase in PBMC-engrafted NSG mice, bioluminescence (Example 15); format: in vivo, mouse; settings: 0.4 mg/kg
Protocol: (§2) To determine the in vivo efficacy of anti-BCMA×anti-CD3 bispecific antibodies (Abs), a xenogenic tumor study was performed. On day 0, immunodeficient NOD.Cg-Prkdc^scidII2rg^tm1Wjl/SzJ (NSG) mice were intravenously administered 2×10^6 BCMA^+ OPM-2 human multiple myeloma tumor cells that were engineered to also express firefly luciferase (OPM-2-luciferase cells). On day 10, the mice were intraperitoneally injected with 4×10^6 human peripheral blood mononuclear cells (PBMC) from a normal, healthy donor. […] The mice were administered these Abs twice more on days 25 and 28, for a total of three doses. Tumor growth was assessed through day 61 by measuring tumor bioluminescence (BLI) in anesthetized animals. As a positive control, a group of mice (n=5) was given only OPM-2-luciferase cells, but not PBMC or antibody.
as §2, with “Implantation and measurement” for “To determine the in vivo efficacy”, “of” for “of anti-BCMA×anti-CD3 bispecific antibodies (Abs), a”, “tumors:” for “tumor study was performed.”, “NOD.Cg-Prkdc^scidII2rg^tm1Wkl/SzJ” for “NOD.Cg-Prkdc^scidII2rg^tm1Wjl/SzJ”
Measurement of xenogenic tumor growth: BLI imaging was used to measure tumor burden. Mice were injected IP with 150 mg/kg of the luciferase substrate D-luciferin suspended in PBS. Five minutes after this injection, BLI imaging of the mice was performed under isoflurane anesthesia using the Xenogen IVIS system. Image acquisition was carried out with the field of view at D, subject height of 1.5 cm, and medium binning level with automatic exposure time determined by the Living Image Software. BLI signals were extracted using Living Image software: regions of interest were drawn around each tumor mass and photon intensities were recorded as p/s/cm2/sr.

monkey BCMA-MMH, sequence (as listed by the source): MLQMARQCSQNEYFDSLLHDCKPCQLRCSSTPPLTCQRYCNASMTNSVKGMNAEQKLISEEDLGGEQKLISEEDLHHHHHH
monkey BCMA-MFC, sequence (as listed by the source): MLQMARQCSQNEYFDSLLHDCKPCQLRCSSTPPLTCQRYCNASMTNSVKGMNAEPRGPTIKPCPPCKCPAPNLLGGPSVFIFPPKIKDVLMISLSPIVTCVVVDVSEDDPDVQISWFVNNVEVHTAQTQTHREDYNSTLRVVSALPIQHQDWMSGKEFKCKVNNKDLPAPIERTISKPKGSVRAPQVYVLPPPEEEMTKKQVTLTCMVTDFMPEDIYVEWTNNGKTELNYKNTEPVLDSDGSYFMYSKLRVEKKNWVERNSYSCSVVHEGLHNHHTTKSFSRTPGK

In the case of “REGN5458: anti-BCMA×anti-CD3 bispecific antibody: mAb21581 BCMA heavy chain, mAb7221G CD3 heavy chain and common light chain; SEQ ID NOs 126, 127, 129”, the “ka” value (monkey BCMA-MFC) was 528000 M⁻¹ s⁻¹, the “kd” value (monkey BCMA-MFC) was 8.8e-05 s⁻¹ and the “ka” value (monkey BCMA-MMH) was 182000 M⁻¹ s⁻¹. For the same substance, the “kd” value (monkey BCMA-MMH) was 0.00909 s⁻¹, the “Average Tumor Size (mm3) ± SEM on Day 3” value ([1]; 0.04 mg/kg) was 9.3 ± 2.4 mm3 and the “Average Tumor Size (mm3) ± SEM on Day 7” value ([1]; 0.04 mg/kg) was 18.3 ± 5.0 mm3. The “Average Tumor Size (mm3) ± SEM on Day 10” value ([1]; 0.04 mg/kg) was 73.9 ± 25.7 mm3, the “Average Tumor Size (mm3) ± SEM on Day 14” value ([1]; 0.04 mg/kg) was 255.4 ± 79.7 mm3 and the “Average Tumor Size (mm3) ± SEM on Day 17” value ([1]; 0.04 mg/kg) was 494.3 ± 144.3 mm3. The “Average Tumor Size (mm3) ± SEM on Day 21” value ([1]; 0.04 mg/kg) was 1373.0 ± 366.6 mm3, the “Average Tumor Size (mm3) ± SEM on Day 23” value ([1]; 0.04 mg/kg) was 1882.3 ± 551.5 mm3 and the “Average Tumor Size (mm3) ± SEM on Day 28” value ([1]; 0.04 mg/kg) was 2542.5 ± 613.3 mm3. For the same substance, the “Average Tumor Size (mm3) ± SEM on Day 31” value ([1]; 0.04 mg/kg) was 2906.1 ± 532.6 mm3, the “Average Tumor Size (mm3) ± SEM on Day 35” value ([1]; 0.04 mg/kg) was 3538.0 ± 0.0 mm3 and the “Average Tumor Size (mm3) ± SEM on Day 3” value ([1]; 0.4 mg/kg) was 13.5 ± 1.5 mm3. The “Average Tumor Size (mm3) ± SEM on Day 7” value ([1]; 0.4 mg/kg) was 1.0 ± 1.0 mm3, the “Average Tumor Size (mm3) ± SEM on Day 10” value ([1]; 0.4 mg/kg) was 0 ± 0 mm3 and the “Average Tumor Size (mm3) ± SEM on Day 14” value ([1]; 0.4 mg/kg) was 0 ± 0 mm3. For the same substance, the “Average Tumor Size (mm3) ± SEM on Day 17” value ([1]; 0.4 mg/kg) was 1.7 ± 1.7 mm3, the “Average Tumor Size (mm3) ± SEM on Day 21” value ([1]; 0.4 mg/kg) was 5.3 ± 5.3 mm3 and the “Average Tumor Size (mm3) ± SEM on Day 23” value ([1]; 0.4 mg/kg) was 9.7 ± 9.7 mm3. For the same substance, the “Average Tumor Size (mm3) ± SEM on Day 28” value ([1]; 0.4 mg/kg) was 47.4 ± 47.4 mm3, the “Average Tumor Size (mm3) ± SEM on Day 31” value ([1]; 0.4 mg/kg) was 104.7 ± 92.6 mm3 and the “Average Tumor Size (mm3) ± SEM on Day 35” value ([1]; 0.4 mg/kg) was 375.1 ± 307.5 mm3. For the same substance, the “Average Tumor Size (mm3) ± SEM on Day 42” value ([1]; 0.4 mg/kg) was 968.8 ± 689.2 mm3, the “Average Tumor Size (mm3) ± SEM on Day 56” value ([1]; 0.4 mg/kg) was 1742.4 ± 635.2 mm3 and the “Average Tumor Size (mm3) ± SEM on Day 3” value ([1]; 4 mg/kg) was 12.5 ± 1.3 mm3. For the same substance, the “Average Tumor Size (mm3) ± SEM on Day 7” value ([1]; 4 mg/kg) was 0 ± 0 mm3, the “Average Tumor Size (mm3) ± SEM on Day 10” value ([1]; 4 mg/kg) was 0 ± 0 mm3 and the “Average Tumor Size (mm3) ± SEM on Day 14” value ([1]; 4 mg/kg) was 0 ± 0 mm3. For the same substance, the “Average Tumor Size (mm3) ± SEM on Day 17” value ([1]; 4 mg/kg) was 14.5 ± 7.3 mm3, the “Average Tumor Size (mm3) ± SEM on Day 21” value ([1]; 4 mg/kg) was 102.7 ± 66.2 mm3 and the “Average Tumor Size (mm3) ± SEM on Day 23” value ([1]; 4 mg/kg) was 193.3 ± 117.7 mm3. For the same substance, the “Average Tumor Size (mm3) ± SEM on Day 28” value ([1]; 4 mg/kg) was 627.4 ± 318.1 mm3, the “Average Tumor Size (mm3) ± SEM on Day 31” value ([1]; 4 mg/kg) was 1018.5 ± 498.3 mm3 and the “Average Tumor Size (mm3) ± SEM on Day 35” value ([1]; 4 mg/kg) was 1342.9 ± 629.6 mm3. For the same substance, the “Average Tumor Size (mm3) ± SEM on Day 42” value ([1]; 4 mg/kg) was 2363.0 ± 890.2 mm3, the “Average Tumor Size (mm3) ± SEM on Day 49” value ([1]; 4 mg/kg) was 1683.5 ± 1683.5 mm3 and the “Average Tumor Size (mm3) ± SEM on Day 56” value ([1]; 4 mg/kg) was 3108.1 ± 3108.1 mm3. For the same substance, the “Radiance [p/s/cm2^2/sr] 26 days post-implantation (mean ± SEM)” value [2] was 1.73E+06 ± 8.69E+05 p/s/cm2^2/sr, the “Radiance [p/s/cm2^2/sr] 31 days post-implantation (mean ± SEM)” value [2] was 3.50E+06 ± 2.42E+06 p/s/cm2^2/sr and the “Radiance [p/s/cm2^2/sr] 34 days post-implantation (mean ± SEM)” value [2] was 4.85E+06 ± 3.24E+06 p/s/cm2^2/sr. For the same substance, the “Radiance [p/s/cm2^2/sr] 38 days post-implantation (mean ± SEM)” value [2] was 5.30E+06 ± 3.44E+06 p/s/cm2^2/sr, the “Radiance [p/s/cm2^2/sr] 40 days post-implantation (mean ± SEM)” value [2] was 5.06E+06 ± 3.36E+06 p/s/cm2^2/sr and the “Radiance [p/s/cm2^2/sr] 47 days post-implantation (mean ± SEM)” value [2] was 7.76E+05 ± 7.85E+04 p/s/cm2^2/sr. For the same substance, the “Radiance [p/s/cm2^2/sr] 54 days post-implantation (mean ± SEM)” value [2] was 5.78E+05 ± 1.15E+05 p/s/cm2^2/sr, the “Radiance [p/s/cm2^2/sr] 61 days post-implantation (mean ± SEM)” value [2] was 5.23E+05 ± 4.10E+04 p/s/cm2^2/sr and the “tumor burden” value ([2]; three doses) was “reduced tumor burdens to background levels in the majority of animals”. For the same substance, the “Radiance [p/s/cm2^2/sr] 5 days post-implantation (mean ± SEM)” value ([2]; before first dose (day 21)) was 5.87E+05 ± 2.40E+04 p/s/cm2^2/sr, the “Radiance [p/s/cm2^2/sr] 11 days post-implantation (mean ± SEM)” value ([2]; before first dose (day 21)) was 6.19E+05 ± 4.39E+04 p/s/cm2^2/sr and the “Radiance [p/s/cm2^2/sr] 20 days post-implantation (mean ± SEM)” value ([2]; before first dose (day 21)) was 1.81E+06 ± 2.37E+05 p/s/cm2^2/sr.
